Source: article PMC7956476, “Quinoline Functionalized Schiff Base Silver (I) Complexes: Interactions with Biomolecules and In Vitro Cytotoxicity, Antioxidant and Antimicrobial Activities” (Molecules, 2021)

Tests used:
calf thymus DNA (CT-DNA) = experiment: CT-DNA electronic absorption titration (Wolfe–Shimer); format: binding; conditions: intrinsic binding constant, absorption titration, PBS pH 7.2
Description: The interaction of the L1–L5 and complexes Q1–Q15 with calf thymus-DNA was carried out in a Phosphate buffer saline solution pH 7.2 stored at 4 °C. The DNA stock solution was prepared by dissolving CT-DNA sodium salt in Phosphate buffer saline solution with continuous stirring overnight. It was filtered and stored at 4 °C and used within four days. […] A fixed amount of the L1–L5 and complexes Q1–Q15 (50 µM) were prepared by dissolving an appropriate amount in DMSO. […] Therefore, in all the experimental of the interaction of L1–L5 and complexes Q1–Q15 with biomolecules, the final concentration of DMSO in the incubation mixture was ~2% (v/v).
The binding modes of L1–L5 and complexes Q1–Q15 to CT-DNA were characterized through electronic absorption titration by varying concentrations of CT-DNA (0–30 µM) in phosphate buffer saline solution against fixed concentrations (20 µM) of L1–L5 and complexes Q1–Q15. […] The absorbance of CT-DNA is cancelled by adding equivalent amounts of CT-DNA to both the tested compounds and the reference solutions.

[1] = Ferric reducing antioxidant power (FRAP) assay; format: biochemical; conditions: done in triplicate
Text: Antioxidants are important in protecting the human body against damage by reactive oxygen species (ROS). Accumulation of ROS in the cells may lead to damage of the DNA, RNA, and proteins which subsequently leads to several physiological disorders such as cardiovascular disease, diabetes, rheumatism, atherosclerosis, cancer, aging and cell death. […] The free radical scavenging ability of all ligands and complexes in this study were investigated using ferric reducing antioxidant power (FRAP). In antioxidant studies, FRAP assay is often preferred because it is simple, fast, economical, and direct in antioxidant measurement. FRAP assay is based on the electron-donating ability of an antioxidant compound. This involves the reduction of a colorless Fe^3+ tripyridyltriazine complex (Fe^3+ (TPTZ)) to an intense blue-colored Fe^2+ tripyridyltriazine complex (Fe^2+ (TPTZ)) by the electron-donating antioxidants at low pH [69]. The reducing power is to determine the reductive ability of the test compounds.
Antioxidant activity studies of L1–L5 and Q1–Q15 were done using ferric reducing antioxidant power (FRAP) assay. The ferric reducing antioxidant power assay is often used to evaluate the ability of an antioxidant to donate an electron. […] The resulting mixture was incubated at 50 °C for 20 min, and 2.5 mL of 10% trichloroacetic acid was added to acidify the mixture. After that, 1 mL of the acidified mixture was added to 1 mL of distilled water and 0.5 mL of 0.1% FeCl3. The absorbance of the resulting solution was then measured at 700 nm. The antioxidant power of the compounds was expressed as a percentage of ferric reducing antioxidant power Ascorbic acid equivalent, as shown in Equation (4). (4) % FRAP =Absorbance of Absorbance of Sample/Absorbance of Ascorbic Acid ×100

[2] = test system: Salmonella typhimurium ATCC 14026; experiment: Minimum inhibitory concentration (MIC), spotting on Müeller–Hinton agar; format: cell-based; conditions: Gram − Ve; S. typhi; 37 °C, 18 h
Description: (§1) Sterilized Nutrient agar medium was first prepared by dissolving 38 g of Müeller–Hinton agar (MHA) (Biolab, Midrand, Africa) in distilled water (1 L). […] The cooled Agar medium was poured in Petri dishes while ensuring a uniform 4 mm depth of the medium and cooling further to ambient temperature.
(§2) These bacteria were inoculated in a sterilized Nutrient Broth (NB) (Biolab, Midrand, Africa) through streak plate technique and incubated at 37 °C for 18 h. The nutrient broth was sterilized by dissolving 1.3 g in distilled water (100 mL). Ca. 10 mL of the nutrient broth was transferred into a cotton wool-plugged test tubes and wrapped with an aluminium foil. […] Following this was the isolation of a single colony of the bacteria and inoculated into a 10 mL sterile NB which was then incubated in a shaking incubator at 37 °C for 18 h. Each of the bacteria strain concentrations was adjusted with sterile distilled water to get a final concentration of 1.5 × 10^8 cfu/mL, i.e., 0.5 Mc Farland’s Standard using a densitometer (Mc Farland Latvia). The bacteria were lawn inoculated on the set MHA Petri dishes using a sterile cotton swab. Screening of L1–L5 and Q1–Q15 for antibacterial activity was first carried out by spotting 5 µL of their solution (prepared from the dissolution of 1000 µg of the L1–L5 and Q1–Q15 in 1 mL dimethyl sulfoxide (DMSO)) on an MHA petri dish and incubated at 37 °C for 18 h. The antibacterial activity was determined by looking out for a clear zone at the spotting point.

[3] = test system: Staphylococcus aureus ATCC 25923; experiment: as above; format: cell-based; conditions: Gram + Ve, S. aureus, 37 °C, 18 h
Description: as §1, §2

[4] = test system: Staphylococcus aureus ATCC 700699 (methicillin-resistant); experiment: as above; format: cell-based; conditions: Gram + Ve; methicillin-resistant S. aureus; 37 °C, 18 h
Description: as §1, §2

[5] = test system: Pseudomonas aeruginosa ATCC 27853; experiment: as above; format: cell-based; conditions: Gram − Ve; P. aeruginosa; 37 °C, 18 h
Description: as §1, §2

[6] = test system: Escherichia coli ATCC 25922; experiment: as above; format: cell-based; conditions: Gram − Ve, E. coli, 37 °C, 18 h
Description: as §1, §2

CT-DNA-EB adduct = experiment: Fluorescence competitive displacement of ethidium bromide from CT-DNA; format: binding, calf; conditions: for CT-DNA-EB-Complex Ksv (M^−1) × 10^4: Stern–Volmer quenching constant, 25 °C; for CT-DNA-EB-Complex Kq (M^−1S^−1) × 10^12: bimolecular quenching constant, Ksv = Kqτo, τo 10^−8 s; for CT-DNA-EB-Complex Kbin (M^−1) × 10^5: binding constant from double-logarithmic plot
Text: The Stern–Volmer plot approach was used based on the fact that the Stern–Volmer plots for Q1–Q15 (Figure 5c), were linear an indication of only one mechanism for the quenching fluorescence, i.e., either dynamic or static. […] (1) Ksv=Kqτo where Ksv, Kq, and τo represent Stern–Volmer quenching constant, bimolecular quenching constant, and an average lifetime of the fluorophore in the absence of the quencher, respectively. τₒ normally takes about 10^−8 s in biomacromolecules.
The double-logarithmic Equation (2) was used in determining the binding constant of complexes Q1–Q15 and CT-DNA. (2) logFo−F/F=logKb+n logQ
A competitive displacement study was carried out using fluorescence spectroscopy between CT-DNA pre-treated with ethidium bromide (EB) and complexes Q1–Q15 to establish the complexes′ actual mode of binding to CT-DNA. […] The competitive luminescence displacement assay was done using a modified method. Pre-treated 15 µM solution of EB with 15 µM of CT-DNA was prepared in a phosphate buffer of pH 7.2 and left to equilibrate for 30 min. Keeping CT-DNA-EB concentrations constant, different concentrations (0–20 µM) of the complexes were added at 8 min incubation interval at room temperature. The fluorescence quenching ability of CT-DNA bound EB by the complexes were recorded in the wavelength range of 530–700 nm with an excitation wavelength at 525 nm at 25 °C. (6) Fo/F=1+KSVQ=1+KqτoQ
A Stern–Volmer (Equation (6)) was used to evaluate the CT-DNA-EB fluorescence quenching of the complexes. Where Fo and F denote the relative fluorescence intensities of CT-DNA in the absence and presence of the quencher, Ksv, Stern–Volmer quenching constant, [Q], quencher concentration, Kq, bimolecular quenching constant and τo, average lifetime of the fluorophore in the absence of the quencher which is typically equal to 10^−8 s in biomacromolecules.

[7] = molecular target: bovine serum albumin (BSA) (Bos taurus, UniProt P02769); experiment: Albumin binding by absorption spectroscopy titration
Text: Bovine serum albumin (BSA) was used as the protein standard in this study because of its close resemblance to human serum albumin (HSA), its stability, high solubility, neutrality in many biochemical reactions and low cost. In protein binding study, absorption spectroscopy titration is a known method used in studying the conformational changes in proteins, and this protein is characterized by an intense absorbance peak at 280 nm depicting the microenvironment around tyrosine and tryptophan residue polarity.
The absorbance assay of albumin binding is a very simple method used in identifying the conformational changes in protein. […] A stock solution of bovine serum albumin (BSA) was prepared by dissolving an appropriate amount of BSA in phosphate buffer saline solution (pH 7.2) under constant stirring for 1 h at 25 °C. It was kept at 4 °C and used within four days. […] The stock solution of the complex was prepared by dissolving 1 mmol of the complexes in DMSO. The absorption titration assay was done by adding different concentrations (0–10 µM) of the complexes to a constant BSA concentration (6 µM). The sample solution was incubated after each addition of the concentrations for 10 min at 25 °C before recording the absorbance at λmax 280 nm.

bovine serum albumin (BSA), sequence (P02769 25-607): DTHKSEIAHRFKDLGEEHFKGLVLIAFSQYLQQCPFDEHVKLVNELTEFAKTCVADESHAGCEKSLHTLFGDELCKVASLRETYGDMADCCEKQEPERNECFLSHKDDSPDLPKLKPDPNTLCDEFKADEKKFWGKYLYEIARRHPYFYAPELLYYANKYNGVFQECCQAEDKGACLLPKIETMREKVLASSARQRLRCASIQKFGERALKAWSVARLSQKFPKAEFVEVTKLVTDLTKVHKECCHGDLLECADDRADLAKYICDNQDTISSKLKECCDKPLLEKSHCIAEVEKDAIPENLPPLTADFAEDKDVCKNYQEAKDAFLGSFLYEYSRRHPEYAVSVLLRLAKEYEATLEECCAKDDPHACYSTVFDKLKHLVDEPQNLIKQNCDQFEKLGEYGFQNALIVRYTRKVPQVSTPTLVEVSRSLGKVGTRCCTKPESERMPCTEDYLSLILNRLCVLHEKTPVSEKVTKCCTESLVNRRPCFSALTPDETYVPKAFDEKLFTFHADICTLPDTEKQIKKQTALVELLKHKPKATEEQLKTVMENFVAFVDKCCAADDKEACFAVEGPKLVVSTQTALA

Row | SMILES | CT-DNA-Cmp. Kb (M^−1) × 10^5 (calf thymus DNA (CT-DNA)) | Antioxidant (IC50 mg/mL) FRAP [1] [mg/mL] | Minimum inhibitory concentration, ST [2] [µg/mL] | Minimum inhibitory concentration, SA [3] [µg/mL] | Minimum inhibitory concentration, MRSA [4] [µg/mL] | Minimum inhibitory concentration, PA [5] [µg/mL] | Minimum inhibitory concentration, EC [6] [µg/mL] | CT-DNA-EB-Complex Ksv (M^−1) × 10^4 (CT-DNA-EB adduct; EB displacement) | CT-DNA-EB-Complex Kq (M^−1S^−1) × 10^12 (CT-DNA-EB adduct) | CT-DNA-EB-Complex Kbin (M^−1) × 10^5 (CT-DNA-EB adduct) | Protein-Complex Kb (M^−1) × 10^4 [7] | binding constant (Kbin) to CT-DNA (CT-DNA-EB adduct; as given in the text, EB displacement, double-logarithmic plot) [M⁻¹] | MIC ([3]; Staphylococcus aureus, ATCC25923, read-out: Minimum inhibitory concentration, SA) [µg/mL] | MIC ([6]; Escherichia coli, ATCC25922, read-out: Minimum inhibitory concentration, EC) [µg/mL]
1 | Clc1ccc(N=Cc2ccc3ccccc3n2)cc1.Clc1ccc(N=Cc2ccc3ccccc3n2)cc1.O=[N+]([O-])[O-].[Ag+] [Complex Q3, [Ag(L3)2]NO3] | 15.7 (M^−1) × 10^5 | 4.75 ± 0.0042 | 50 | 50 | 50 | 12.5 | 25 | 3.93 (M^−1) × 10^4 | 3.93 (M^−1S^−1) × 10^12 | 9.17 (M^−1) × 10^5 | 5.11 (M^−1) × 10^4 |  |  | 
2 | Cc1ccc(N=Cc2ccc3ccccc3n2)cc1.Cc1ccc(N=Cc2ccc3ccccc3n2)cc1.O=S(=O)([O-])C(F)(F)F.[Ag+] [Complex Q14, [Ag(L4)2]CF3SO3] | 3.33 (M^−1) × 10^5 | 3.55 ± 0.022 | 50 | 50 | 1000 | ~0.8 | 25 | 2.98 (M^−1) × 10^4 | 2.98 (M^−1S^−1) × 10^12 | 5.31 (M^−1) × 10^5 | 7.50 (M^−1) × 10^4 |  |  | 
3 | O=[N+]([O-])[O-].[Ag+].c1ccc2nc(-c3nc4ccccc4s3)ccc2c1.c1ccc2nc(-c3nc4ccccc4s3)ccc2c1 [Complex Q2, [Ag(L2)2]NO3] | 3.00 (M^−1) × 10^5 | 1.10 ± 0.0044 | 50 | 25 | 50 | 12.5 | 25 | 2.68 (M^−1) × 10^4 | 2.68 (M^−1S^−1) × 10^12 | 5.03 (M^−1) × 10^5 | 7.97 (M^−1) × 10^4 |  |  | 
4 | Clc1ccc(N=Cc2ccc3ccccc3n2)cc1.Clc1ccc(N=Cc2ccc3ccccc3n2)cc1.O=S(=O)([O-])C(F)(F)F.[Ag+] [Complex Q13, [Ag(L3)2]CF3SO3] | 4.29 (M^−1) × 10^5 | 2.22 ± 0.0055 | 50 | 25 | 50 | 12.5 | 25 | 3.33 (M^−1) × 10^4 | 3.33 (M^−1S^−1) × 10^12 | 5.74 (M^−1) × 10^5 | 2.89 (M^−1) × 10^4 |  |  | 
5 | C(=NCc1cccs1)c1ccc2ccccc2n1.C(=NCc1cccs1)c1ccc2ccccc2n1.[Ag+].[O-][Cl+3]([O-])([O-])[O-] [Complex Q10, [Ag(L5)2]ClO4] | 5.00 (M^−1) × 10^5 | 0.98 ± 0.055 | 100 | 25 | 1000 | 1.6 | 6.25 | 2.98 (M^−1) × 10^4 | 2.98 (M^−1S^−1) × 10^12 | 9.61 (M^−1) × 10^5 | 8.01 (M^−1) × 10^4 | 961000 |  | 
6 | Fc1ccccc1/N=C/c1ccc2ccccc2n1 [Complex L1, (E)-N-(2-fluorophenyl)-1-(quinolin-2-yl)methanimine] | 1.38 (M^−1) × 10^5 | 22.42 ± 0.0048 |  |  |  |  |  |  |  |  |  |  | 100 | 1000
